In ChEMBL document CHEMBL4014262, “Phloroglucinol Derivatives with Protein Tyrosine Phosphatase 1B Inhibitory Activities from Eugenia jambolana Seeds” (J Nat Prod, 2017) one finds IC50 data, which are given here for six compounds.

The IC50 is the concentration that inhibits the measured activity by half.

For the assay, the target named is T1, Tyrosine-protein phosphatase non-receptor type 1 (Homo sapiens, UniProt P18031).
T1 sequence (P18031 whole entry): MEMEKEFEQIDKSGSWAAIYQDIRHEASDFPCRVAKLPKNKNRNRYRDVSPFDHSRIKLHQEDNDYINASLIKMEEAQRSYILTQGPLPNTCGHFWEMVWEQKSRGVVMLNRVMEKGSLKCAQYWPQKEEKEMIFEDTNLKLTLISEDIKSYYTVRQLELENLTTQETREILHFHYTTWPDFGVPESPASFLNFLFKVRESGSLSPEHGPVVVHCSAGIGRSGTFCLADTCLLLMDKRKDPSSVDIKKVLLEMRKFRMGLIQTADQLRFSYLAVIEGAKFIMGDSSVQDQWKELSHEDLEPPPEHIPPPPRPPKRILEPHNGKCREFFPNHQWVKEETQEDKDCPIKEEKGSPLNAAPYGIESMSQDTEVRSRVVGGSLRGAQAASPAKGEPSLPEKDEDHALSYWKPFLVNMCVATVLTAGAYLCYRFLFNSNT
The experiment in a line: Inhibition of GST-tagged PTP1B (1 to 321 residues) (unknown origin) using p-NPP as substrate preincubated for 10 mins followed by substrate addition measured after 30 mins.
In the case of `CC/C=C\C/C=C\C/C=C\CCCCCCCC1(O)CC(=O)c2c(O)cc(O)cc2O1` (stereo unspecified), the IC50 came out at 0.45 µM. The value for `CC/C=C\C/C=C\C/C=C\CCCCCCCC1(O)CC(=O)c2c(O)c(C)c(O)c(C)c2O1` (stereo unspecified) was 1.6 µM; that for `CCCCCCCCCCCCCCCC1(O)CC(=O)c2c(O)cc(O)cc2O1` (stereo unspecified) was 2 µM; that for `CCCC/C=C\CCCCCCCCCC1(O)CC(=O)c2c(O)c(C)c(O)c(C)c2O1` (stereo unspecified) was 1.8 µM.

Regarding `CCCCC/C=C\C/C=C\CCCCCCCC1(O)CC(=O)c2c(O)c(C)c(O)c(C)c2O1` (stereo unspecified), the IC50 stood at 2.7 µM. With `CCCCC/C=C\C/C=C\CCCCCCCC1(O)CC(=O)c2c(O)cc(O)cc2O1` (stereo unspecified) the figure was 0.42 µM.
